Laboratory results as given in patent US20090298793A1, “Acylgycerophospholipids for treating symptoms concomitant with cancer” (KTB TUMORFORSCHUNGSGESELLSCHAFT MBH, priority 2005, published 2009).

Key:
[1] = system: human kidney cell carcinoma RXF 486; test: Course of weight of naked mice bearing cachexia-inducing human kidney cell carcinoma RXF 486; format: in vivo; conditions: 33 mg/kg DPPC p.o., days 0-4, 7-11, 14, 17, 18; liposomal dispersion in saline; n=3; p <0.001
Text: Tumors from the human kidney cell carcinoma RXF 486 have a string cachexia-inducing effect.
Female athymic BALB/c nude mice (nu/nu) (Charles River, Frederick, Md.) at the age of 8 to 10 weeks were employed. […] They were allowed water and rodent food (Altromin, Lage, Germany) ad libitum.
Fragments of 3-5 mm (in diameter) of the human kidney cell carcinoma RXF 486 were subcutaneously grafted between the animals' front and rear flanks. The therapy experiments were begun when the tumors had reached a size of 30-40 mm^3.
For the therapy, synthetic PL (dipalmitoylphosphatidylcholine, DPPC; Sygena, Liestal, Switzerland) was employed. It was dispersed in 0.9% (w/v) saline in a concentration of 33 mg/ml (ultrasonic dispersion in 50 ml Falcon tube) to provide a heterogeneous liposomal dispersion. For the oral administration (p.o.), the dispersion was adjusted to 3.3 mg/ml with saline.
On experiment days 0-4, 7-11, 14, 17 and 18, the animals were treated with 33 mg each per kg of body weight of DPPC p.o. by a stomach tube (application volume: 10 ml/kg). The control animals only obtained saline. The weight of the animals was determined on days 0, 2, 4, 7, 9, 11, 14, 18, 21, 25, 26 and 29 and is shown in FIG. 1 in % of the weight on day 0.

[2] = system: tumor cells; conditions: Nagami et al., Bioorganic & Medicinal Chemistry Letters 16: 782-785 (2006); cited from earlier work

Row | SMILES | weight loss as compared to an untreated control group [1] | apoptosis and necrosis in tumor cells [2]
1 | CCCCCCCCCCCCCCCC(=O)OC[C@H](COP(=O)([O-])OCC[N+](C)(C)C)OC(=O)CCCCCCCCCCCCCCC [DPPC, dipalmitoylphosphatidylcholine] | virtually stopped | does not show such an effect
2 | CCCCCCCCCCCCCC(=O)OC[C@H](COP(=O)([O-])OCC[N+](C)(C)C)OC(=O)CCCCCCCCCCCCC [dimyristoyl-PC, reference compound] |  | produces apoptosis and necrosis
